Measurements from the NIST ThermoML archive (doi:10.1016/j.jct.2015.03.019).

Settings: for molar entropy: Small (less than 1 g) adiabatic calorimetry; for vapor or sublimation pressure: Transpiration method

CC(C)(C)c1ccc(Oc2ccccc2)cc1 [4-tert-butylphenyl phenyl ether]
molar entropy [J/K/mol], 101.33 kPa
Settings | Crystal | Liquid
5 K | 0.2278 | –
10 K | 1.746 | –
15 K | 5.404 | –
20 K | 10.73 | –
25 K | 17.29 | –
30 K | 24.28 | –
35 K | 31.51 | –
40 K | 38.91 | –
45 K | 46.23 | –
50 K | 53.46 | –
60 K | 67.76 | –
70 K | 81.81 | –
80 K | 95.45 | –
90 K | 108.59 | –
100 K | 121.31 | –
110 K | 133.7 | –
120 K | 145.84 | –
130 K | 157.73 | –
140 K | 169.45 | –
150 K | 180.92 | –
160 K | 192.23 | –
170 K | 203.29 | –
180 K | 214.26 | –
190 K | 225.07 | –
200 K | 235.72 | –
210 K | 246.36 | –
220 K | 256.83 | –
230 K | 267.23 | –
240 K | 277.54 | –
250 K | 287.85 | –
260 K | 298.16 | –
270 K | 308.47 | –
280 K | 318.69 | –
290 K | 328.92 | –
298.15 K | 337.23 | –
300 K | 339.15 | –
310 K | 349.29 | –
320 K | 359.35 | –
327.84 K | 367.17 | 434.26
330 K | – | 436.76
340 K | – | 448.48
350 K | – | 460.04
360 K | – | 471.51
370 K | – | 482.82

Settings | mass density [kg/m3]
298.15 K, 101.33 kPa, Crystal, Pycnometric method | 997.5

Settings | Triple point temperature [K] | vapor or sublimation pressure [kPa]
298.46 K, Crystal | – | 4.8e-05
299.37 K, Crystal | – | 5.3e-05
300.45 K, Crystal | – | 6.1e-05
303.52 K, Crystal | – | 9.5e-05
306.47 K, Crystal | – | 0.000135
310.47 K, Crystal | – | 0.000222
310.5 K, Crystal | – | 0.000229
312.53 K, Crystal | – | 0.000285
314.45 K, Crystal | – | 0.000363
315.5 K, Crystal | – | 0.000405
316.51 K, Crystal | – | 0.000466
317.52 K, Crystal | – | 0.00055
318.5 K, Crystal | – | 0.000621
319.52 K, Crystal | – | 0.000689
320.55 K, Crystal | – | 0.000755
321.53 K, Crystal | – | 0.000855
322.52 K, Crystal | – | 0.00095
323.45 K, Crystal | – | 0.001031
323.55 K, Crystal | – | 0.001042
324.53 K, Crystal | – | 0.001212
Crystal, Adiabatic calorimetry | 327.84 | –
